The source of these data is patent US20230295259A1 (Protagonist Therapeutics, Inc., priority 2020, published 2023).

One data set deals with LAD2 cells. It is filed as cell-based, human. The text has this: In anaphylactoid reactions, the main mechanism involves the direct stimulation of mast cells or basophils, leading to the release of anaphylactic mediators such as histamine and β-hexosaminidase. A recent study by McNeil et al. (McNeil B D et al., 2015) reported that MrgprX2, a specific membrane receptor on human mast cells, induces anaphylactoid reactions. The LAD2 (Laboratory of Allergic Diseases 2) human mast cell line, derived from human mast cell sarcoma/leukemia (Kirshenbaum et al., 2003), is commonly employed to study anaphylactoid reactions, because its biological properties are identical to those of primary human mast cells, including the overexpression of the MrgprX2 receptor and sensitivity towards degranulating peptides (Kulka et al., 2008). The release of anaphylactic mediators such as f-hexosaminidase, is assessed by fluorometric quantification.
On the day of the assay, serial dilutions of compounds were added to LAD2 cells plated at 20000 cells/well in a 96-well plate. After incubation for 30 minutes, the amount of β-hexosaminidase released into the supernatants and in cell lysates was quantified using the fluorogenic substrate 4-methylumbelliferyl-N-acetyl-b-D-glucosaminide. Dose-response curves were generated by plotting the % of β-hexosaminidase release (y-axis) against the concentrations of peptides tested (x-axis). […]. (Table 2D).

Data set [1] concerns the target T1, ferroportin (endogenously expressed in T47D cells) (Homo sapiens, UniProt Q9NP59).
T1 construct: is a human breast carcinoma adherent cell line which endogenously expresses ferroportin; host or cells: T47D
T1 sequence (Q9NP59 1-571): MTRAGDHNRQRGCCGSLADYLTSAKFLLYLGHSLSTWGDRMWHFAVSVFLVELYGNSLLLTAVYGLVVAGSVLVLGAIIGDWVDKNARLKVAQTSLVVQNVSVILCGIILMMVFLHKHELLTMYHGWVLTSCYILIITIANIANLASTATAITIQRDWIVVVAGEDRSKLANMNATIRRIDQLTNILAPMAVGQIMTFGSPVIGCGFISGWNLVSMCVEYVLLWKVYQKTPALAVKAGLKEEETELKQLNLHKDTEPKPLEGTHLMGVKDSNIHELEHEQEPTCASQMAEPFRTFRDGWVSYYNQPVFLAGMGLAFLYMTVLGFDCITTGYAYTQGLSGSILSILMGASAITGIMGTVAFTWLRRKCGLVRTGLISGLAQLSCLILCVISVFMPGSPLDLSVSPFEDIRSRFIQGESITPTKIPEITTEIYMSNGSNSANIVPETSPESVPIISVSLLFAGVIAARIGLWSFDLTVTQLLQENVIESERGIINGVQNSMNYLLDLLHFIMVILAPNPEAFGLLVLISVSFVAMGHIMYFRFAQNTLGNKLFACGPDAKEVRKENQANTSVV
The data set can be described thus: T47D cell-based ferroportin internalization assay in presence of 0.5% mouse serum albumin (AF647-conjugated detection peptide, flow cytometry). The settings on record: read-out: IC50: T47D Internalization MSA. The protocol: The potency of the peptides in causing ferroportin internalization was evaluated in a T47D cell-based assay. […] In this internalization assay, the potency of the test peptides was evaluated in the presence of serum albumin, which is the main protein component in the blood. T47D cells were maintained in RPMI media (containing required amount of fetal bovine serum) and regularly sub-cultured. […] The test peptide dilution series were allowed to incubate at room temperature for 30 min. Then the media was aspirated from the 96-well cell plate and test peptide dilution series were added. After 1 hr incubation, the media with test peptides was aspirated out and AF647-conjugated detection peptide was added at fixed concentration of 200 nM. […] The cells were washed again after a 2 hr incubation in preparation for flow cytometry analysis. The Median Fluorescence Intensity (MFI) of the AF647-positive population was measured (after removing dead cells and non-singlets from the analysis). The MFI values were used to generate a dose-response curve and obtain IC50 potencies for the test peptides.
On the technique in general: Flow cytometry measures light scatter and fluorescence of single cells or particles in a stream.

Data set [2] is described as follows: Stability in simulated intestinal fluid (FaSSIF with 1% pancreatin). The class given is in vitro ADME. The settings on record: pig, pH 6.5, Table 2A, 20 μM in FaSSIF with 1% pancreatin, 37° C., percent in brackets not explained, read-out: SIF Half life. The protocol:
FaSSIF was prepared by dissolving 1.2 g porcine pancreatin (Chem-supply, PL378) in 100 mL Blank FaSSIF and stirred at room temperature for 30 minutes. The solution was filtered through 0.45 μm membrane and aliquot and stored at −20° C.
Experimental compounds of interest (20 μM) were incubated with pre-warmed FaSSIF (1% pancreatin in final incubation mixture) at 37° C. Aliquots were taken at various time points up to 24 hours (e.g. 0, 0.25, 1, 3, 6 and 24 hr), and immediately quenched with 4 volumes of organic solvent (acetonitrile/methanol (1:1) and 0.1% formic acid, containing 1 μM internal standard). Quenched samples were stored at 4° C. until the end of the experiment and centrifuged at 4,000 rpm for 10 minutes. The supernatant was diluted 1:1 with deionized water and analyzed using LC-MS. Percentage remaining at each time point was calculated based on the peak area ratio (analyte over internal standard) relative to the initial level at time zero. Half-lives were calculated by fitting to a first-order exponential decay equation using GraphPad.
Compounds of interest (at concentration of 20 μM) were mixed with pre-warmed FaSSIF (1% pancreatin in final working solution). The solution mixture was aliquoted and incubated at 37° C. The number of aliquots required was equivalent to the number of time points (e.g. 0, 0.25, 1, 3, 6 and 24 hr). […]

Another data set has as its target T2, human ferroportin (Homo sapiens, UniProt Q9NP59).
T2 construct: expressed in transfected cells
T2 sequence (Q9NP59 1-571): T1 sequence (Q9NP59 1-571)
The data set can be described thus: FPN activity assay: internalization/degradation of ferroportin-GFP in stably transfected HEK293 cells (decrease in GFP fluorescence). The settings on record: Table 2B; HEK293 cells expressing human ferroportin-GFP, at least 18 hours incubation; read-out: FPN EC50. The class given is cell-based. Here is the method:
Following internalization, the ferroportin protein is degraded.
A retro inverse peptide is a peptide with a reversed sequence in all D amino acids. An example is that Hy-Glu-Thr-His-NH2 becomes Hy-DHis-DThr-DGlu-NH2. The EC50 of these reference compounds for ferroportin internalization/degradation was determined according to the FPN activity assay described above. These peptides served as control standards.
These values were determined as described herein.

As a reminder, the EC50 is the concentration giving half of the maximal effect. Read a low EC50 as an effect from little substance. The term IC50 denotes the concentration needed to halve the response being measured. Turning to `CC[C@H](C)[C@@H]1NC(=O)[C@@H](NC(=O)[C@@H]2CCCN2C(=O)[C@@H](NC(=O)[C@H](Cc2cnc[nH]2)NC(=O)[C@@H](NC(=O)[C@H](CCC(=O)OC)NC(=O)CC(C)C)[C@@H](C)O)C(c2ccccc2)c2ccccc2)CSSC[C@@H](C(N)=O)NC(=O)[C@@H](CCCCN)NC(=O)C[C@H](Cc2ccccc2)NC(=O)[C@H](CCCCNC(=O)COCCOCCNC(=O)COCCOCCNC(=O)[C@H](CN)NC(=O)CCCCCCCCCCCCCCCCC(=O)O)NC1=O` [Compound 279, Isovaleric Acid-[Glu_OMe]-T-H-[Dpa]-P—C—I-[Lys(1PEG2_1PEG2_Dap_C18_Diacid)]-[bhPhe]-[(D)Lys]-C—NH2], the EC50 with LAD2 cells amounted to 8 µM. Further, the half-maximal inhibitory concentration (IC50) in data set [1] is 0.0154 µM.

In general, half-life refers to the time in which the quantity being followed falls by half. Compound `CC[C@H](C)[C@@H]1NC(=O)[C@@H](NC(=O)[C@@H]2CCCN2C(=O)[C@@H](NC(=O)[C@H](Cc2cnc[nH]2)NC(=O)[C@@H](NC(=O)[C@H](CCC(=O)O)NC(=O)CC(C)C)C(C)O)C(c2ccccc2)c2ccccc2)CSSC[C@@H](C(N)=O)NC(=O)[C@@H](CCCCN)NC(=O)C[C@H](Cc2ccccc2)NC(=O)[C@H](CCCCNC(=O)COCCOCCNC(=O)COCCOCCNC(=O)CCCCCNC(=O)CCCCCCCCCCCCCCCCC(=O)O)NC1=O` (stereo partly shown) [Compound 12, Isovaleric Acid-E-T-H-[Dpa]-P-[Cys]-I-[Lys(1Peg2_1Peg2_Ahx_C18_Diacid)]-[bhPhe]-[(D)Lys]-[Cys]-NH2] returned an EC50 in the data set with LAD2 cells of 12.9 µM. The half-life at 20 μM in data set [2] was 1.5 h.

In turn, `CC[C@H](C)[C@@H]1NC(=O)[C@@H](NC(=O)[C@@H]2CCCN2C(=O)[C@@H](NC(=O)[C@H](Cc2cnc[nH]2)NC(=O)[C@@H](NC(=O)[C@H](CCC(=O)O)NC(=O)CC(C)C)[C@@H](C)O)C(c2ccccc2)c2ccccc2)CSSC[C@@H](C(N)=O)NC(=O)[C@@H](CCCCN)NC(=O)C[C@H](Cc2ccccc2)NC(=O)[C@H](CCCCNC(=O)COCCOCCNC(=O)COCCOCCNC(=O)[C@H](CN)NC(=O)CCCCCCCCCCCCCCCCC(=O)O)NC1=O` [Compound 278, Isovaleric Acid-E-T-H-[Dpa]-P—C—I-[Lys(1PEG2_1PEG2_Dap_C18_Diacid)]-[bhPhe]-[(D)Lys]-C—NH2] showed an EC50 in the data set on LAD2 cells of 15.5 µM. For the same compound, on human ferroportin, the DC50 was found to be 0.0043 µM. The IC50 in data set [1] was found to be 0.0142 µM.
